# Reference: ChEMBL document CHEMBL1135877, “Neurotrophic activity of honokiol on the cultures of fetal rat cortical neurons” (2002)
# Key:
# Format in all cases: functional
# Rattus norvegicus [1] = organism: Rattus norvegicus; test: Compound was tested at 0.01 uM concentration for neurotrophic activity on cultures of E 18 SD rat cortical neurons
# Rattus norvegicus [2] = organism: Rattus norvegicus; test: Compound was tested at 100 uM concentration for neurotrophic activity on cultures of E 18 SD rat cortical neurons
# Rattus norvegicus [3] = organism: Rattus norvegicus; test: Compound was tested at 1 uM concentration for neurotrophic activity on cultures of E 18 SD rat cortical neurons
# Rattus norvegicus [4] = organism: Rattus norvegicus; test: Compound was tested at 0.1 uM concentration for neurotrophic activity on cultures of E 18 SD rat cortical neurons
# Rattus norvegicus [5] = organism: Rattus norvegicus; test: Compound was tested at 10 uM concentration for neurotrophic activity on cultures of E 18 SD rat cortical neurons
smiles,measurement,setting,value
C=CCc1ccc(O)c(-c2ccc(O)c(CC=C)c2)c1 [HONOKIOL],Control,Rattus norvegicus [1],95.6%
same,Control,Rattus norvegicus [2],29.7%
same,Control,Rattus norvegicus [3],113%
same,Control,Rattus norvegicus [4],106%
same,Control,Rattus norvegicus [5],143%
